In PMC3273674 (Biochimica et Biophysica Acta, 2011):
Where no end group is shown, it is not given here.

Test system: dsDNA ([…])
Experiment: DNA binding by fluorescence intercalator displacement
Details: C50 normalized compared to BF2

Molecule	Relative C50
CC(C)C[C@H](NC(=O)CNC(=O)[C@H](C)NC(=O)[C@H](CCCNC(=N)N)NC(=O)[C@H](CO)NC(=O)[C@H](CO)NC(=O)[C@H](CCCNC(=N)N)NC(=O)[C@@H](N)[C@@H](C)O)C(=O)N[C@@H](CCC(N)=O)C(=O)N[C@@H](Cc1c[nH]c2ccccc12)C(=O)N1CCC[C@H]1C(=O)N[C@H](C(=O)NCC(=O)N[C@@H](CCCNC(=N)N)C(=O)N[C@H](C(=O)N[C@@H](Cc1c[nH]cn1)C(=O)N[C@@H](CCCNC(=N)N)C(=O)N[C@@H](CC(C)C)C(=O)N[C@@H](CC(C)C)C(=O)N[C@@H](CCCNC(=N)N)C(=O)N[C@@H](CCCCN)C(=O)O)C(C)C)C(C)C [BF2]	1
KVLRDNIQGWTKPAIRRLARRG [DesHDAP3]	1.09
